Patent US20260158009A1 (GENZYME CORPORATION, priority 2023, published 2026)

Columns and labels:
[1] = target: T1, hRIPK1 (aa 1-375) fusion protein (Homo sapiens, UniProt Q13546); experiment: ADP-Glo kinase assay: catalytic activity of RIPK1 (autophosphorylation, conversion of ATP to ADP); assay type: biochemical
T1 construct: hRIPK1 (aa 1-375) fusion protein
T1 sequence (Q13546 1-375): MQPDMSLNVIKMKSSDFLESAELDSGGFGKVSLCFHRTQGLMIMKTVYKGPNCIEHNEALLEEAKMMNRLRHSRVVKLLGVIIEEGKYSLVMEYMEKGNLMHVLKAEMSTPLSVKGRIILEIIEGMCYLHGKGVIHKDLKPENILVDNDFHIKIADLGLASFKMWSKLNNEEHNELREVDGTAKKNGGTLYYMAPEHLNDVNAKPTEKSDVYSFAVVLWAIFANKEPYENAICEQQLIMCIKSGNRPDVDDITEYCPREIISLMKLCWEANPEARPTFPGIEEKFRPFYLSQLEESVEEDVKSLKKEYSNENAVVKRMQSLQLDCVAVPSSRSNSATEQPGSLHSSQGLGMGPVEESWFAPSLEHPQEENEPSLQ
Summary of the method: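 hRIPK1 (aa 1-375) fusion protein (3.6 μg/ml final) was preincubated 30 min at rt with compound (33300-1.69 nM, 1% DMSO), then 50 μM ATP was added for 240 min at rt. ADP from autophosphorylation was measured by ADP-Glo luminescence and curves fitted by nonlinear regression.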

U937 cells = experiment: Cellular assay in U937 cells: activity of RIPK1 inhibitors on TNFα/zVAD.fmk-induced cell death (necroptosis), CellTiter 96 AQueous (MTS) readout; assay type: cell-based; conditions: Homo sapiens, U-937
Summary of the method: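 Necroptosis was measured by viable-cell MTS reduction (4 h, absorbance 490 nm) after overnight (18–24 h) 37° C culture. Cell suspensions of U937 cells carried TNFα (100 ng/ml) plus zVAD.fmk (50 μM) before compound was added. A 10-point curve (10 μM–0.26 nM or 1 μM–0.07 nM) was run in duplicate, normalised to the control lacking TNFα/zVAD.fmk.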

IC50 [1] [nM]	Compound	IC50 (U937 cells) [nM]
37	N#Cc1cncc([C@@H]2CCON2C(=O)[C@H]2CC[C@H](Cn3ncc4cc(F)ccc43)CC2)c1 [compound 126, trans-5-((S)-2-(4-((5-fluoro-1H-indazol-1-yl)methyl)cyclohexane-1-carbonyl)isoxazolidin-3-yl)nicotinonitrile]	29
17	N#Cc1cc(F)cc([C@@H]2CCON2C(=O)[C@H]2CC[C@H](Cc3cnccn3)CC2)c1 [compound 245, trans-3-fluoro-5-[(3S)-2-[4-(pyrazin-2-ylmethyl)cyclohexanecarbonyl]isoxazolidin-3-yl]benzonitrile]	16
48	Cc1nc2c(F)cc(C[C@H]3CC[C@H](C(=O)N4OCC[C@H]4c4cnc(C)c(F)c4)CC3)cn2n1 [compound 327, trans-[(3S)-3-(5-fluoro-6-methyl-3-pyridyl)isoxazolidin-2-yl]-[4-[(8-fluoro-2-methyl-[1,2,4]triazolo[1,5-a]pyridin-6-yl)methyl]cyclohexyl]methanone]	48
39	N#Cc1cc(F)cc([C@@H]2CCON2C(=O)[C@H]2CC[C@H](Cn3cc4ccc(C#N)cc4n3)CC2)c1 [compound 30, trans-2-((4-((S)-3-(3-cyano-5-fluorophenyl)isoxazolidine-2-carbonyl)cyclohexyl)methyl)-2H-indazole-6-carbonitrile]	68
15	N#Cc1cc(F)cc([C@@H]2CCON2C(=O)[C@H]2CC[C@H](Cn3cnc4ccccc43)CC2)c1 [compound 7, trans-3-((S)-2-(4-((1H-benzo[d]imidazol-1-yl)methyl)cyclohexane-1-carbonyl)isoxazolidin-3-yl)-5-fluorobenzonitrile]	9
28	Cc1cc([C@@H]2CCON2C(=O)[C@H]2CC[C@H](Cn3cnc4cc(F)c(C#N)cc43)CC2)co1 [compound 39, trans-5-fluoro-1-((4-((S)-3-(5-methylfuran-3-yl)isoxazolidine-2-carbonyl)cyclohexyl)methyl)-1H-benzo[d]imidazole-6-carbonitrile]	15
21	N#Cc1cc2c(ccn2C[C@H]2CC[C@H](C(=O)N3OCC[C@H]3c3cc(F)cc(F)c3)CC2)cc1F [compound 23, trans-1-((4-((S)-3-(3,5-difluorophenyl)isoxazolidine-2-carbonyl)cyclohexyl)methyl)-5-fluoro-1H-indole-6-carbonitrile]	3
17	Cc1cc(C[C@H]2CC[C@H](C(=O)N3OCC[C@H]3c3cncc(F)c3)CC2)cn2ncnc12 [compound 336, trans-[(3S)-3-(5-fluoropyridin-3-yl)-1,2-oxazolidin-2-yl]-[4-[(8-methyl-[1,2,4]triazolo[1,5-a]pyridin-6-yl)methyl]cyclohexyl]methanone]	10
23	Cc1ccc(C[C@H]2CC[C@H](C(=O)N3OCC[C@H]3c3cc(F)cc(F)c3)CC2)nn1 [compound 304, trans-[(3S)-3-(3,5-difluorophenyl)isoxazolidin-2-yl]-[4-[(6-methylpyridazin-3-yl)methyl]cyclohexyl]methanone]	33
32	Cc1ncc(F)cc1C[C@H]1CC[C@H](C(=O)N2OCC[C@H]2c2cnccn2)CC1 [compound 180, trans-[4-[(5-fluoro-2-methyl-3-pyridyl)methyl]cyclohexyl]-[(3S)-3-pyrazin-2-ylisoxazolidin-2-yl]methanone]	11
26	Cc1nc([C@@H]2CCON2C(=O)[C@H]2CC[C@H](Cc3ccc(C4(O)COC4)cc3)CC2)cs1 [compound 369, trans-{4-[4-(3-Hydroxy-oxetan-3-yl)-benzyl]-cyclohexyl}-[(S)-3-(2-methyl-thiazol-4-yl)-isoxazolidin-2-yl]-methanone]	24
6	CNC(=O)c1cc(F)cc(C[C@H]2CC[C@H](C(=O)N3OCC[C@H]3c3cncc(F)c3)CC2)c1 [compound 160, trans-3-fluoro-5-[[4-[(3S)-3-(5-fluoro-3-pyridyl)isoxazolidine-2-carbonyl]cyclohexyl]methyl]-N-methyl-benzamide]	11
19	O=C([C@H]1CC[C@H](Cn2ccc3ncc(F)cc32)CC1)N1OCC[C@H]1c1cc(F)cc(F)c1 [compound 94, trans-((S)-3-(3,5-difluorophenyl)isoxazolidin-2-yl)(4-((6-fluoro-1H-pyrrolo[3,2-b]pyridin-1-yl)methyl)cyclohexyl)methanone]	1
20	Cn1nccc1-c1cc(F)cc(C[C@H]2CC[C@H](C(=O)N3OCC[C@H]3c3cc(F)cc(C#N)c3)CC2)c1 [compound 214, trans-3-fluoro-5-[(3S)-2-[4-[[3-fluoro-5-(2-methylpyrazol-3-yl)phenyl]methyl]cyclohexanecarbonyl]isoxazolidin-3-yl]benzonitrile]	4
42	Cc1cc(C[C@H]2CC[C@H](C(=O)N3OCC[C@H]3c3cc(F)cc(F)c3)CC2)ncn1 [compound 313, trans-[(3S)-3-(3,5-difluorophenyl)isoxazolidin-2-yl]-[4-[(6-methylpyrimidin-4-yl)methyl]cyclohexyl]methanone]	40
59	Cc1cncc([C@@H]2CCON2C(=O)[C@H]2CC[C@H](Cc3cc(C)c4nc(C)nn4c3)CC2)c1 [compound 378, trans-[4-[(2,8-dimethyl-[1,2,4]triazolo[1,5-a]pyridin-6-yl)methyl]cyclohexyl]-[(3S)-3-(5-methylpyridin-3-yl)-1,2-oxazolidin-2-yl]methanone]	95
46	Cc1ccc([C@@H]2CCON2C(=O)[C@H]2CC[C@H](Cc3cc(C)c4ncnn4c3)CC2)cn1 [compound 347, trans-[(3S)-3-(6-methylpyridin-3-yl)-1,2-oxazolidin-2-yl]-[4-[(8-methyl-[1,2,4]triazolo[1,5-a]pyridin-6-yl)methyl]cyclohexyl]methanone]	59
24	Cc1ncc(F)cc1C[C@H]1CC[C@H](C(=O)N2OCC[C@H]2c2cncc(C#N)c2)CC1 [compound 197, trans-5-[(3S)-2-[4-[(5-fluoro-2-methyl-3-pyridyl)methyl]cyclohexanecarbonyl]isoxazolidin-3-yl]pyridine-3-carbonitrile]	4
125	Cc1nc([C@@H]2CCON2C(=O)[C@H]2CC[C@H](Cn3cc4ccc(C#N)cc4n3)CC2)cs1 [compound 203, trans-2-[[4-[(3S)-3-(2-methylthiazol-4-yl)isoxazolidine-2-carbonyl]cyclohexyl]methyl]indazole-6-carbonitrile]	432
61	Cc1ccc([C@@H]2CCON2C(=O)[C@H]2CC[C@H](Cc3ccnn3C)CC2)cn1 [compound 397, trans-[4-[(2-methylpyrazol-3-yl)methyl]cyclohexyl]-[(3S)-3-(6-methylpyridin-3-yl)-1,2-oxazolidin-2-yl]methanone]	163
138	COc1cncc([C@@H]2CCON2C(=O)[C@H]2CC[C@H](Cn3cc4ccc(C#N)cc4n3)CC2)n1 [compound 189, trans-2-[[4-[(3S)-3-(6-methoxypyrazin-2-yl)isoxazolidine-2-carbonyl]cyclohexyl]methyl]indazole-6-carbonitrile]	623
51	N#Cc1cncc([C@@H]2CCON2C(=O)[C@H]2CC[C@H](Cn3cnc4cc(C#N)c(F)cc43)CC2)c1 [compound 65, trans-1-((4-((S)-3-(5-cyanopyridin-3-yl)isoxazolidine-2-carbonyl)cyclohexyl)methyl)-6-fluoro-1H-benzo[d]imidazole-5-carbonitrile]	164
21	O=C([C@H]1CC[C@H](Cc2ccc(C3(O)COC3)cc2)CC1)N1OCC[C@H]1c1ccc(F)cc1 [compound 170, trans-[(3S)-3-(4-fluorophenyl)isoxazolidin-2-yl]-[4-[[4-(3-hydroxyoxetan-3-yl)phenyl]methyl]cyclohexyl]methanone]	15
12	Cc1ncc(C[C@H]2CC[C@H](C(=O)N3OCC[C@H]3c3cc(F)cc(C#N)c3)CC2)cc1C#N [compound 268, trans-5-[[4-[(3S)-3-(3-cyano-5-fluoro-phenyl)isoxazolidine-2-carbonyl]cyclohexyl]methyl]-2-methyl-pyridine-3-carbonitrile]	5
20	Cc1nc([C@@H]2CCON2C(=O)[C@H]2CC[C@H](Cn3ccc4cc(C(N)=O)ccc43)CC2)cs1 [compound 254, trans-1-[[4-[(3S)-3-(2-methylthiazol-4-yl)isoxazolidine-2-carbonyl]cyclohexyl]methyl]indole-5-carboxamide]	96
4	CNC(=O)c1cc(F)cc(C[C@H]2CC[C@H](C(=O)N3OCC[C@H]3c3cnccn3)CC2)c1 [compound 162, trans-3-fluoro-N-methyl-5-[[4-[(3S)-3-pyrazin-2-ylisoxazolidine-2-carbonyl]cyclohexyl]methyl]benzamide]	15
